Results: article PMC9088311, “Cyclic Thiosulfonates for Thiol-Mediated Uptake: Cascade Exchangers, Transporters, Inhibitors” (JACS Au, 2022)
Where “and” joins values, the source holds several entries; their conditions need not be identical. Identical values can stand only once.

Assay: Dynamic covalent ring opening with thiol 10, 1H NMR kinetics
Assay type: physicochemical
Protocol: The dynamic covalent opening of CTO 3 with thiols yields product 9 with a disulfide and a sulfinate (Figure 3B). Consistent with short chalcogen bonds found in silico, the opening of CTO 3 was instantaneous on an NMR timescale with most thiols. To decelerate ring opening, bulky thiols were considered in combination with lowered pH to deactivate the nucleophile. With N-Ac-D-penicillamine 10, the opening of 5 mM CTO 3 in phosphate buffer/DMSO-d6 9:1 was still immediate at pD 6.7 but became detectable in ^1H NMR spectroscopy kinetics under more acidic conditions. The ring-opening rate constants k^O were estimated by fitting the initial velocities to second-order kinetics. Only lower bound rates were approximated from the earliest determined substrate conversions when reactions were still too fast despite the unfavorable conditions. At pD 5.4, dynamic covalent ring opening of CTO 3 with equimolar tertiary thiol 10 occurred with k^O > 0.49 M^–1 s^–1 and equilibrated at K = 6.0 × 10^3 M^–1 (Table 1, entry 1, Figures S4 and S5). At pD 2.7, further deceleration to k^O = 0.10 M^–1 s^–1 shifted the equilibrium to K = 500 M^–1 (Table 1, entry 2, Figures S6 and S7). […] At equilibrium, the concentration of thiol 10 further decreased slowly due to oxidation into the homodimer (Figure 3C, diamonds).
Equilibrium constants for reactions with two reactants A and B and a product C are […]
3.1.1. Dynamic Covalent Ring Opening with Thiols
General procedure A (at 5 mM): To a solution of deuterated sodium phosphate (200 mM in D 2O, pD 2.7 or 5.4, 180 mM final concentration), a stock solution of substrate (0.10 M in DMSO-d6, 5.0 mM final concentration) was added and stirred. Then a stock solution of 10 (0.10 M in DMSO- d6, 5.0 mM final concentration) was added and vigorously stirred at room temperature. The solution was transferred immediately to an NMR tube and NMR data were recorded repeatedly. The concentration of the substrate or thiol at each time plot was calculated by comparing the integrals of the peaks indicated with arrows in the figures, and plotted. The data points were fitted to obtain k1 with the Equation (S6) or (S7) using Graphpad Prism.
General procedure B (at 2 mM): To a solution of deuterated sodium phosphate (200 mM in D 2O, pD 2.7 or 5.4, 180 mM final concentration), DMSO- d6 (10% DMSO- d6 in the reaction mixture) and a stock solution of substrate (0.10 M in DMSO- d6, 2.0 mM final concentration) were added and stirred. Then a stock solution of 10 (0.10 M in DMSO- d6, 2.0 mM final concentration) was added and vigorously stirred at room temperature. The solution was transferred immediately to an NMR tube and NMR data were recorded repeatedly. The concentration of the substrate or thiol at each time plot was calculated by comparing the integrals of the peaks indicated with arrows in the figures, and plotted. The data points were fitted to obtain k1 with the Equation (S6) or (S7) using Graphpad Prism.
General procedure C (for thiosulfinates): To a solution of deuterated sodium phosphate (200 mM in D 2O, pD 5.4, 170 mM final concentration), a stock solution of substrate (0.10 M in DMSO- d6, 5.0 mM final concentration) was added and stirred. Then a stock solution of 10 (0.10 M in DMSO- d6, 10 mM final concentration) was added and vigorously stirred at room […]
data points were fitted to obtain k1 with the Equation (S14) or (S16) using Graphpad Prism. […]
3.1.2. Dependence of Ring Opening on Proticity
A mixture of deuterated phosphoric acid and NaOD (30% in D 2O), which gave pD 2.7 in D2O, was used as buffer in all solvent mixtures. To a solution of deuterated sodium phosphate (20 mM final concentration) in a mixture of D 2O and DMSO- d6 (540 μL, final D 2O content: […]
concentration) was added and stirred. Then a stock solution of 10 (0.10 M in DMSO- d6, 5.0 mM final concentration) was added and vigorously stirred at room temperature. The solution was transferred immediately to an NMR tube and 1H NMR data were recorded repeatedly. […]

[1] = equimolar 10, rt, pD 2.7, 90% D2O, Na+ phosphate 180 mM, substrate 2 mM

Which “k^O, rate constant of ring opening (or equivalent for acyclic controls)” value (2 equiv of 10, rt, pD 5.4, 85% D2O, Na+ phosphate 170 mM, substrate 5 mM) does the source give for `[O-][S+]1C[C@@H](O)[C@@H](O)CS1` (some centres unmarked) [Compound 2] here?
The value was 0.001 M^–1 s^–1.

What about the “krel^O, rate constant of ring opening relative to 3” value (pD 5.4, 85% D2O, 5 mM, 2 equiv of 10) of the same molecule?
Its value is <0.002.

And the “ring opening/exchange slower than CTO 3 (fold)” value (with thiol 10, pD 5.4)?
Its value is > 500 ×.

With `O=S1(=O)C[C@H](O)[C@H](O)CS1` (stereo in doubt) [Compound 3, (4S,5R)-4,5-dihydroxy-1,2-dithiane-1,1-dioxide] as the molecule, how does the “k^O, rate constant of ring opening” value (equimolar 10, rt, pD 2.7, 90% D2O/DMSO-d6, Na+ phosphate 180 mM, substrate 5 mM) read?
Its value is 0.10 M^–1 s^–1 and 0.10 ^i M^–1 s^–1.

What about the “k^O, rate constant of ring opening (or equivalent for acyclic controls)” value (equimolar 10, rt, pD 5.4, 90% D2O/DMSO-d6, Na+ phosphate 180 mM, substrate 5 mM) of the same molecule?
Its value is >0.49 M^–1 s^–1.

And the “k^O, rate constant of ring opening” value (estimated pD 2.7, Na+ phosphate 20 mM, 2% D2O, 5 mM)?
Its value is >1.4 M^–1 s^–1.

And the “k^O, rate constant of ring opening” value (estimated pD 2.7, Na+ phosphate 20 mM, 5% D2O, 5 mM)?
Its value is >1.3 M^–1 s^–1.

What about the “k^O, rate constant of ring opening” value (estimated pD 2.7, Na+ phosphate 20 mM, 8% D2O, 5 mM) of the same molecule?
Its value is >1.4 M^–1 s^–1.

What about the “k^O, rate constant of ring opening” value (estimated pD 2.7, Na+ phosphate 20 mM, 10% D2O, 5 mM) of the same molecule?
Its value is >2.1 M^–1 s^–1.

And the “k^O, rate constant of ring opening” value (estimated pD 2.7, Na+ phosphate 20 mM, 30% D2O, 5 mM)?
The value was >2.8 M^–1 s^–1.

What about the “k^O, rate constant of ring opening” value (estimated pD 2.7, Na+ phosphate 20 mM, 50% D2O, 5 mM) of the same molecule?
The value was >1.3 M^–1 s^–1.

What about the “k^O, rate constant of ring opening” value (estimated pD 2.7, Na+ phosphate 20 mM, 70% D2O, 5 mM) of the same molecule?
Its value is 0.28 ± 0.03 M^–1 s^–1 and 0.28 M^–1 s^–1.

What about the “k^O, rate constant of ring opening” value (estimated pD 2.7, Na+ phosphate 20 mM, 90% D2O, 5 mM) of the same molecule?
Its value is 0.15 ± 0.01 M^–1 s^–1 and 0.15 M^–1 s^–1.

What about the “krel^O, rate constant of ring opening relative to 3” value (pD 2.7, 90% D2O, 5 mM) of the same molecule?
Its value is 1.

What about the “krel^O, rate constant of ring opening relative to 3” value (pD 5.4, 90% D2O, 5 mM) of the same molecule?
The value was 1.

What does the source list for `O=C1O[C@H]2CSS(=O)(=O)C[C@H]2O1` [Compound 11]?
k^O, rate constant of ring opening (or equivalent for acyclic controls) [1]: >12 M^–1 s^–1; krel^O, rate constant of ring opening relative to 3 (pD 2.7, 90% D2O, 2 mM): >120; ring opening faster than 3 (fold) (with thiol 10, pD 2.7): > 100 ×

Which “k^O, rate constant of ring opening (or equivalent for acyclic controls)” value [1] does the source give for `O=S1(=O)C=C[C@@H](O)CS1` [Compound 12] here?
Its value is >6.1 M^–1 s^–1.

What about the “krel^O, rate constant of ring opening relative to 3” value (pD 2.7, 90% D2O, 2 mM) of the same molecule?
The value was >61.
